One series relates to IOP. The conditions noted are these: intravitreal injection (Singh et al. 2004); cited from earlier work.
Series [1] has as its system IOP of Dutch Belted rabbits having elevated IOP. In words: Brinzolamide anterior sub-Tenon's or topical administration in rabbits with elevated IOP, Example 4. In kind it is in vivo. The conditions noted are these: for mean percent IOP change from baseline compared to BSS control: over 7 days. As for the experimental part:
Eyes of Dutch Belted rabbits having elevated IOP were injected in the anterior segment with a carbonic anhydrase inhibitor.
Methods: Baseline IOP was measured daily for 5 days and averaged. Seven rabbits received one anterior sub-Tenon's capsule administration of 800 μl of a non-optimized 1% ophthalmic suspension of brinzolamide (AZOPT®). Seven rabbits received a 1% ophthalmic suspension of brinzolamide (AZOPT®) delivered topically once per day for seven days. Seven rabbits received one anterior sub-Tenon's administration of 800 μl of BSS®. IOP was monitored daily at 2 hours after topical drops were administered, for seven days, and weekly thereafter until IOP measurements remained the same as baseline for two measurements. […] Mean pretreatment IOP was 27.41 mm Hg. Mean change in IOP for this group was +0.18 mm Hg. Rabbits receiving either daily topical administration or subtenon's injection of brinzolamide experienced sustained lowering of IOP. For the topical administration group mean pretreatment IOP was 28.37 mm Hg. Mean change in IOP for this group was −2.48 mm Hg. […] For the group receiving one anterior subtenon's administration of a 1% brinzolamide ophthalmic suspension the mean pretreatment IOP was 27.44 mm Hg. Mean change in IOP for this group was −1.85 mm Hg. […] (See FIG. 4). […] Longer duration of action of the brinzolamide suspension from the subtenon's capsule could be achieved using higher concentration suspensions (e.g. 5% or 10%) or via encapsulation in sustained release dose forms such as microspheres.

The test system of series [2] is IOP elevation associated with topical dexamethasone. The conditions noted are these: topical administration, rabbits; cited from earlier work.
Series [3] has as its system myocilin expression in trabecular meshwork cells. The conditions noted are these: cultured trabecular meshwork cells; cited from earlier work.
The next series has as its system IOP of patients. In words: Randomized dose study of anecortave acetate AJD 3, 15, 30 mg vs vehicle, Example 6. Format: in vivo, human (patients). As to the method: Eligible patients were randomized into four groups to receive AJD as follows: • Anecortave acetate vehicle, 0.5 mL (21 patients) • Anecortave acetate 3 mg (0.5 mL, 0.6% suspension) (22 patients) • Anecortave acetate 15 mg (0.5 mL, 3% suspension) (20 patients) • Anecortave acetate 30 mg (0.5 mL, 6% suspension) (22 patients).
The site of the AJD injection was 3-5 mm from the limbus, inferiorly (between 4 and 8 o'clock, FIG. 1), and the drug was injected slowly (30-90 sec) using a 30 gauge needle.

Series [4] relates to IOP of patients with primary open angle glaucoma. Put plainly: Single anterior juxtascleral depot (AJD) of anecortave acetate in glaucoma patients, Example 2. In kind it is in vivo, human (patients). The conditions noted are these: single ~24 mg AJD. An excerpt:
Methods: An investigator IND and IRB approval was obtained. All patients gave informed consent. […] Prior glaucoma medications were not changed throughout study. Results: Six subjects with glaucoma and IOP≧23 mmHg (POAG [4], PDS [1], PXF [1]) mean age 59+/−8 years. Mean C/D ratio 0.8+/−0.2. Prior glaucoma medications included prostaglandins, beta blockers and/or alpha agonists (four on 1, one on 3, and one on 4). Mean pretreatment IOP was 31.3+/−11.3 mmHg. […] Patients were followed for twelve (12) months. The IOP-lowering effects peaked at approximately one month. The duration of effectiveness of the anecortave acetate was at least twelve (12) months. […] Treatment with prior glaucoma medications was discontinued for two patients due to the surprising IOP-lowering effects of the juxtasclerally administered anecortave acetate. This new method of treatment obviates problems with eye drops and many issues with compliance. Clinically meaningful additional medium-term IOP reduction is possible with a single anterior juxtascleral depot injection of anecortave acetate, much more than presently obtained with any currently available adjunctive medications.

Series [5] concerns IOP of patients with glaucoma caused by intravitreal injections of glucocorticoids. In words: Single administration of anecortave acetate in patients with glaucoma caused by intravitreal glucocorticoids, Example 3. Format: in vivo, human (patients). An excerpt: All patients were on maximal tolerated medical therapy for glaucoma and continued on their pre-study medications for the duration of the study.
In this group of eight eyes, three of which had prior intraocular surgery, and all of which were on at least three different types of glaucoma medications (maximum 6 medications and a mean of 4.1 different drug classes) the IOP decrease was seen as early as one week (mean 11.4 mm Hg), and appeared to reach a maximum decrease at three weeks (mean 16.4 mm Hg). FIG. 3 illustrates the decrease in IOP observed in these patients for twenty months.

The mark [6] stands for this setting: mean pretreatment IOP 31.3+/-11.3 mmHg.

Structures are written as SMILES. “And” between values parts separate entries of the source, which are not always exact repeats. Equal entries are not always repeated. Bounds are passed on as bounds.

For the compound `CC1(C)O[C@@H]2C[C@H]3[C@@H]4CCC5=CC(=O)C=C[C@]5(C)[C@@]4(F)[C@@H](O)C[C@]3(C)[C@]2(C(=O)CO)O1` [triamcinolone, triamcinolone acetonide], in the series on IOP, the IOP reached is roughly 60 mm Hg and the “earliest onset of IOP elevation” value is given as 4 days.
As to `CCN[C@H]1CN(CCCOC)S(=O)(=O)c2sc(S(N)(=O)=O)cc21` [brinzolamide], the “maximum IOP lowering from baseline” value in series [1] (1% suspension topically once per day for seven days) came to 11.1%. The “Mean change in IOP” value is −2.48 mm Hg in series [1] (1% suspension topically once per day for seven days, mean pretreatment IOP 28.37 mm Hg) and −1.85 mm Hg in series [1] (one anterior sub-Tenon's administration of 800 μl 1% suspension, mean pretreatment IOP 27.44 mm Hg). In addition, in series [1] (both topical and subtenon's groups), the “time of peak levels of IOP change” value is on record as no more than 3 days. The “maximum percent IOP lowering” value in series [1] (one anterior sub-Tenon's administration of 800 μl 1% suspension) is 15.9%. Further, the “mean percent IOP change from baseline compared to BSS control” value in series [1] (subtenon's injection group) and in series [1] (topical administration group) was “statistically lower at all points” each time.
Take `CC(=O)OCC(=O)[C@@]1(O)CC[C@H]2[C@@H]3CCC4=CC(=O)CC[C@]4(C)C3=CC[C@@]21C` [anecortave acetate, 4, 9(11)-pregnadien-17∝,21-diol-3,20-dione-21-acetate]: the “effect on IOP elevation associated with topical dexamethasone” value in series [2] is recorded as “decreases the IOP elevation”. Further, the “effect on dexamethasone induced myocilin expression” value in series [3] is “inhibition”. In addition, the “patients who maintained an IOP of ≦21 mm Hg for 3 months” value (“patients who maintained an IOP” below) in the series on IOP of patients (3 mg group (22 patients)) turned out to be 7 patients. Besides, the “patients who maintained an IOP” value with IOP of patients (15 mg group (20 patients)) is 6 patients. Further, the “patients who maintained an IOP” value in the series with IOP of patients (30 mg group (22 patients)) is listed as 11 patients. The “duration of IOP reductions after a single administration” value with IOP of patients (p<0.05 for all concentrations relative to vehicle at month 3, ANOVA) was no less than 3 months. In addition, in series [4], the “mean IOP decrease at 3 months (percent)” value stood at 38.5%+/−21% and the “time at which IOP-lowering effects peaked” value is reported as “approximately one”. Also, in series [4] (followed 12 months), the “clinically significant adverse events” value is reported as “No clinically significant adverse events occurred” and the duration of effectiveness is on record as no less than 12 months. Besides, the “patients with >25% IOP decrease at 3 months” value in series [4] (prior glaucoma medications unchanged, six subjects, IOP>=23 mmHg) was “Five of six”. In series [4] (setting [6]), the “mean IOP at 3 months” value is reported as 16.4+/−6 mm Hg and the “mean IOP decrease at 3 months” value is listed as 10.8+/−7.0 mmHg. Besides, the “patients whose prior glaucoma medications were discontinued due to IOP-lowering effect” value in series [4] (six subjects) was “two”. Moreover, the “IOP, individual eyes, 1 week” value in series [5] (1 week after single ~24 mg, baselines 34-57) is 30 mm Hg (2×) and 34 mm Hg (2×) and 24 mm Hg (2×) and 23 mm Hg. In addition, in series [5] (1 week, mean baseline 40.125), the “Mean IOP, 1 week” value was 28.43 mm Hg. In series [5] (2 mon after single ~24 mg), the “IOP, individual eyes, 2 mon” value was 30 mm Hg and 24 mm Hg and 16 mm Hg and 19 mm Hg and 23 mm Hg. Further, in series [5] (2 mon, mean baseline 40.125), the “Mean IOP, 2 mon” value came out at 22 mm Hg. Besides, in series [5] (2 weeks after single ~24 mg, baselines 34-57), the “IOP, individual eyes, 2 weeks” value was 28 mm Hg (2×) and 32 mm Hg and 19 mm Hg (2×) and 23 mm Hg and 35 mm Hg. The “Mean IOP, 2 weeks” value in series [5] (2 weeks, mean baseline 40.125) came to 24.8 mm Hg. The “IOP, individual eyes, 3 mon” value in series [5] (3 mon after single ~24 mg) was 32 mm Hg and 18 mm Hg (2×) and 21 mm Hg and 19 mm Hg. In series [5] (3 mon, mean baseline 40.125), the “Mean IOP, 3 mon” value was 19.3 mm Hg. Also, the “IOP, individual eyes, 3 weeks” value in series [5] (3 weeks after single ~24 mg) was 30 mm Hg and 17 mm Hg and 19 mm Hg (2×) and 37 mm Hg. Besides, the “Mean IOP, 3 weeks” value in series [5] (3 weeks, mean baseline 40.125) is 24.4 mm Hg. Further, in series [5] (4 mon after single ~24 mg), the “IOP, individual eyes, 4 mon” value is 17 mm Hg and 16 mm Hg and 23 mm Hg and 21 mm Hg. Further, the “Mean IOP, 4 mon” value in series [5] (4 mon, mean baseline 40.125) worked out at 20 mm Hg. Besides, the “IOP, individual eyes, 4 weeks” value in series [5] (4 weeks after single ~24 mg) is 30 mm Hg (2×) and 28 mm Hg and 31 mm Hg and 14 mm Hg and 21 mm Hg and 19 mm Hg and 36 mm Hg. The “Mean IOP, 4 weeks” value in series [5] (4 weeks, mean baseline 40.125) came out at 26.1 mm Hg. Moreover, the “IOP, individual eyes, 5 mon” value in series [5] (5 mon after single ~24 mg) was 15 mm Hg and 17 mm Hg and 21 mm Hg and 22 mm Hg. Further, in series [5] (5 mon, mean baseline 40.125), the “Mean IOP, 5 mon” value is reported as 20 mm Hg. Also, the “IOP, individual eyes, 6 mon” value in series [5] (6 mon after single ~24 mg) was 19 mm Hg (3×) and 15 mm Hg. In addition, in series [5] (6 mon, mean baseline 40.125), the “Mean IOP, 6 mon” value was 17.6 mm Hg. Moreover, the “IOP, individual eyes, 6.2 mon” value in series [5] (6.2 mon after single ~24 mg) amounted to 26 mm Hg. Moreover, the “IOP, individual eyes, 6.5 mon” value in series [5] (6.5 mon after single ~24 mg) is recorded as 38 mm Hg. Further, the “IOP, individual eyes, 7 mon” value in series [5] (7 mon after single ~24 mg) was 17 mm Hg and 18 mm Hg (2×). In addition, in series [5] (7 mon, mean baseline 40.125), the “Mean IOP, 7 mon” value worked out at 17.6 mm Hg. Moreover, the “Mean IOP, 8 mon” value in series [5] (8 mon) is given as 26.5 mm Hg. The “IOP, individual eyes, 8 mon” value in series [5] (8 mon after single ~24 mg) was 31 mm Hg and 22 mm Hg. For the same compound, the “Mean IOP, 9 mon” value in series [5] (9 mon) came out at 17.3 mm Hg. Moreover, in series [5] (9 mon after single ~24 mg), the “IOP, individual eyes, 9 mon” value was 15 mm Hg and 19 mm Hg and 18 mm Hg. In series [5] (12 mon), the “Mean IOP, 12 mon” value came out at 19.6 mm Hg. In addition, the “IOP, individual eyes, 12 mon” value in series [5] (12 mon after single ~24 mg) was 15 mm Hg and 22 mm Hg (2×). In addition, the “Mean IOP, 13 mon” value in series [5] (13 mon) is reported as 19.6 mm Hg. For the same compound, the “IOP, individual eyes, 13 mon” value in series [5] (13 mon after single ~24 mg) is 18 mm Hg and 22 mm Hg and 19 mm Hg. In series [5] (14 mon), the “Mean IOP, 14 mon” value is listed as 25.5 mm Hg. Moreover, the “IOP, individual eyes, 14 mon” value in series [5] (14 mon after single ~24 mg) was 25 mm Hg and 26 mm Hg. Also, in series [5] (15 mon), the “Mean IOP, 15 mon” value is 24 mm Hg. In addition, the “IOP, individual eyes, 15 mon” value in series [5] (15 mon after single ~24 mg) is 26 mm Hg and 22 mm Hg. For the same compound, the “Mean IOP, 17 mon” value in series [5] (17 mon) came out at 18.5 mm Hg. For the same compound, the “IOP, individual eyes, 17 mon” value in series [5] (17 mon after single ~24 mg) was 19 mm Hg and 18 mm Hg. Further, the “Mean IOP, 18 mon” value in series [5] (18 mon) came to 18 mm Hg. In addition, in series [5] (18 mon after single ~24 mg), the “IOP, individual eyes, 18 mon” value is 19 mm Hg and 17 mm Hg. Further, the “IOP, individual eyes, 20 mon” value in series [5] (20 mon after single ~24 mg) is on record as 16 mm Hg. Besides, in series [5] (eight eyes, single ~24 mg), the “IOP decrease in all eyes” value was “All eyes had marked IOP decrease”, the “mean IOP decrease at one week” value came out at 11.4 mm Hg and the “mean IOP decrease at three weeks (maximum decrease)” value came out at 16.4 mm Hg. Also, the “IOP decrease in one eye at 2 months” value in series [5] (eye that needed filtration surgery, resultant IOP 30 mm Hg) amounted to 45%. Moreover, in series [5] (remaining five eyes, IOP elevation due to triamcinolone reversed), the “time for which recurrence of elevated IOP was prevented” value is reported as “up to 12 months”. Besides, in series [5] (single ~24 mg), the adverse events entry was “without adverse events”, the “duration of IOP reductions” value is listed as “at least 6 months” and the “patients avoiding glaucoma filtration surgery” value worked out at 75%.

Values taken from US20080125406A1, “Method for Treating Primary and Secondary Forms of Glaucoma” (priority 2005, published 2008).
